The text below walks through data of patent US10080756B2, “Combination methods for treating cancers” (Gilead Sciences, Inc., priority 2014, dated 2018).

Data set [1] deals with DHL-10. The experiment in a line: Cell Titer Glo viability assay, DHL-10, alone or with compound of Formula I (Example 3). To be noted: for Fold shift: EC50 alone vs +300 nM Compound of Formula I. The procedure: All procedures were performed at Gilead Sciences, Inc. in Branford, Conn. […] Compound plates were diluted 1:100 in RPMI without serum or additives but containing either 1% DMSO or 3 μM of the compound of Formula I creating a 10× stock. The DLBCL cell line, DHL-10 was plated at 10,000 cells per well in RPMI supplemented with 10% FBS and 100 U/L penicillin-streptomycin. To each well containing cells, 11 μl of 10× compound mixture in serum-free media was added in a final concentration of 0.2% DMSO and cells were incubated at 37° C. in 5% CO2 for 72 hours. Cell viability was assessed using Cell Titer Glo (CTG, Promega, Madison, Wis.) following the manufacturer's protocol on an Envision plate reader (Perkin Elmer, Waltham, Mass.). CTG signals were recorded for individual compound treatments and combinations. EC50 values were determined using a four parameter variable slope model with GraphPad Prism 6.0 software.

In data set [2] the test system is MM1.S. The data set can be described thus: Cell Titer Glo viability assay, MM1.S. In kind it is cell-based. The note with it: Homo sapiens, read-out: Inhibition of Viability, EC50. The procedure:
(§1) All procedures were performed at Gilead Sciences, Inc. in Branford, The compound of formula (I), cyclophosphamide, doxorubicin and vincristine sulfate were dissolved in DMSO to prepare stock solutions that were serially diluted three-fold in DMSO in a 96 well plate format at 1000× so the final starting assay concentrations tested would be 10 μM, 200 μM, 10 μM, and 1 μM respectively, for each compound. Compound plates were diluted 1:100 in RPMI without serum or additives creating a 10× stock. Cells were seeded into a 96-well plate at 10,000-20,000 cells per well in 100 μl of growth media appropriate to the cell line supplemented with 100 U/L penicillin-streptomycin. OCI-Ly3, OCI-Ly4 and OCI-Ly7 were grown in Iscove's+20% FBS, OCI-Ly19 was grown in alphaMEM+20% FBS, and all other cell lines were grown in RPMI+10% FBS. To each well, 11 μl of 10× compound was added in a final concentration of 0.1% DMSO and cells were incubated at 37° C. in 5% CO2 for 72 hours. Cell viability was assessed with Cell Titer Glo (Promega, Madison, Wis.) following the manufacturer's protocol on an Envision plate reader (Perkin Elmer, Waltham, Mass.). EC50 values were determined using a four parameter variable slope model with GraphPad Prism 6.0 software. All EC50 values represent mean values of from duplicate dose response curves.

Data set [3] concerns OPM-2. The experiment in a line: Cell Titer Glo viability assay, OPM-2. In kind it is cell-based. The note with it: Homo sapiens, read-out: Inhibition of Viability, EC50. The procedure:
as §1

The subject of data set [4] is WSU-FSCCL. The experiment in a line: Cell Titer Glo viability assay, WSU-FSCCL. In kind it is cell-based. To be noted: read-out: Inhibition of Viability, EC50. The procedure:
as §1

In data set [5] the test system is OCI-LY7. The experiment in a line: Cell Titer Glo viability assay, OCI-LY7. In kind it is cell-based. The note with it: Homo sapiens, read-out: Inhibition of Viability, EC50. The procedure:
as §1

The subject of data set [6] is SU-DHL-4. The experiment in a line: Cell Titer Glo viability assay, SU-DHL-4. The note with it: Homo sapiens, read-out: Inhibition of Viability, EC50. In kind it is cell-based. The procedure: as §1
Data set [7] deals with RPMI-8266. The data set can be described thus: Cell Titer Glo viability assay, RPMI-8266. In kind it is cell-based. To be noted: read-out: Inhibition of Viability, EC50. The procedure:
as §1

For data set [8], the system named is Karpas 422. The data set can be described thus: Cell Titer Glo viability assay, Karpas 422. To be noted: Homo sapiens, read-out: Inhibition of Viability, EC50. In kind it is cell-based. The procedure: as §1
For data set [9], the system named is WSU-NHL. The experiment in a line: Cell Titer Glo viability assay, WSU-NHL. In kind it is cell-based. The note with it: Homo sapiens, read-out: Inhibition of Viability, EC50. The procedure:
as §1

For data set [10], the system named is Pfeiffer. The experiment in a line: Cell Titer Glo viability assay, Pfeiffer. In kind it is cell-based. The note with it: Homo sapiens, read-out: Inhibition of Viability, EC50. The method, then: as §1
The subject of data set [11] is Mino. The data set can be described thus: Cell Titer Glo viability assay, Mino. In kind it is cell-based. The note with it: Homo sapiens, read-out: Inhibition of Viability, EC50. The procedure: as §1
Data set [12] deals with KMS-11. The experiment in a line: Cell Titer Glo viability assay, KMS-11. The note with it: Homo sapiens, read-out: Inhibition of Viability, EC50. In kind it is cell-based. The procedure: as §1
Data set [13] relates to SU-DHL-2. The experiment in a line: Cell Titer Glo viability assay, SU-DHL-2. In kind it is cell-based. The note with it: Homo sapiens, read-out: Inhibition of Viability, EC50. The method, then:
as §1

Data set [14] concerns OCI-LY19. The experiment in a line: Cell Titer Glo viability assay, OCI-LY19. In kind it is cell-based. To be noted: Homo sapiens, read-out: Inhibition of Viability, EC50. The method, then: as §1
In data set [15] the test system is SU-DHL-10. The experiment in a line: Cell Titer Glo viability assay, SU-DHL-10. In kind it is cell-based. The note with it: Homo sapiens, read-out: Inhibition of Viability, EC50. The method, then:
as §1

The test system of data set [16] is OCI-LY4. The data set can be described thus: Cell Titer Glo viability assay, OCI-LY4. In kind it is cell-based. The note with it: read-out: Inhibition of Viability, EC50. The method, then:
as §1

The subject of data set [17] is SU-DHL-6. The data set can be described thus: Cell Titer Glo viability assay, SU-DHL-6. In kind it is cell-based. To be noted: Homo sapiens, read-out: Inhibition of Viability, EC50. The method, then:
as §1

Data set [18] concerns 10 diffuse large B-cell lymphoma (DLBCL), 4 multiple myeloma (MM), 2 follicular lymphoma (FL), and 1 mantle cell lymphoma (MCL) cell lines. The experiment in a line: Cell Titer Glo viability assay, summary over all cell lines tested. To be noted: at concentrations <10000 nM. In kind it is cell-based. The procedure:
as §1

Data set [19] concerns OCI-LY3. The experiment in a line: Cell Titer Glo viability assay, OCI-LY3. In kind it is cell-based. The note with it: Homo sapiens, read-out: Inhibition of Viability, EC50. The procedure: as §1
Data set [20] is described as follows: Cell Titer Glo viability assay, summary over all cell lines tested. In kind it is cell-based. The note with it: B-cell; range over the 17 cell lines of Table 1; read-out: EC50 values to inhibit cell viability, range over cell lines. The method, then: as §1
For data set [21] the following is noted: in vivo; cited from earlier work.
Setting [22] is: Homo sapiens, 72 h, read-out: Inhibition of cell viability EC50, No Compound of Formula I.
Setting [23] is: read-out: Inhibition of cell viability EC50, +300 nM Compound of Formula I, DHL-10, in combination with 300 nM compound of Formula I, 72 hours.

Structures are written as SMILES. Where two headings read alike, the source gives them in different places.

On to `COc1cc2c(c(OC)c1OC)-c1ccc(OC)c(=O)cc1[C@@H](NC(C)=O)CC2` [Colchicine, colchicine], for which, in data set [1] (DHL-10), the Fold shift stood at 1.0. For the same molecule, the EC50 in [1] (setting [22]) was found to be 0.0135 µM; in data set [1] (setting [23]), 0.0142 µM.
As for `COc1ccc(/C=C\c2cc(OC)c(OC)c(OC)c2)cc1O` [Combretastatin A4, combretastatin A4], in data set [1] (DHL-10), the Fold shift is 1.2. Further, the EC50 in [1] (setting [23]) was found to be 0.0048 µM; in data set [1] (read-out: Inhibition of cell viability EC50, No Compound of Formula I, DHL-10, compound alone, 72 hours) it was 0.0059 µM.
On to `O=P1(N(CCCl)CCCl)NCCCO1` (centres unmarked) [Cyclophosphamide, cyclophosphamide], for which the EC50 was over 10 µM in [2] (72 h); over 10 µM in [3] (OPM-2, 72 h); over 10 µM in data set [4] (72 h); over 10 µM in data set [5] (OCI-Ly7, 72 h); over 10 µM in data set [6] (SU-DHL-4, 72 h); over 10 µM in data set [7] (RPMI8266, 72 h). The EC50 in data set [8] (KARPAS-422, 72 h) was over 10 µM; in [9] (72 h), over 10 µM; in data set [10] (72 h), over 10 µM; in data set [11] (MINO, 72 h), over 10 µM; in [12] (KMS-11, 72 h), over 10 µM; in data set [13] (SU-DHL-2, 72 h), over 10 µM. Further, the EC50 was over 10 µM in data set [14] (OCI-LY19, 72 h); over 10 µM in [15] (SU-DHL10, 72 h); over 10 µM in [16] (72 h); over 10 µM in data set [17] (SU-DHL-6, 72 h); over 10 µM in data set [19] (OCI-Ly3, 72 h). Also, the “inhibition of cell viability in any of the cell lines tested” value in data set [18] is given as “did not show inhibition cell viability”.
With `COc1cccc2c1C(=O)c1c(O)c3c(c(O)c1C2=O)C[C@@](O)(C(=O)CO)C[C@@H]3O[C@H]1C[C@H](N)[C@H](O)[C@H](C)O1` [Doxorubicin, doxorubicin], the EC50 in data set [2] (MM, single agent, 72 hours) came out at 0.066 µM; in data set [3] (OPM-2, MM, single agent, 72 hours) it was 0.557 µM; in data set [4] (WSU-FSCCL, FL, single agent, 72 hours), 0.052 µM; in data set [5] (OCI-LY7, DLBCL, single agent, 72 hours), 0.199 µM; in data set [6] (SU-DHL-4, DLBCL, single agent, 72 hours), 0.215 µM; in data set [7] (RPMI8266, RPMI-8266, MM, single agent, 72 hours), 0.176 µM. Moreover, the EC50 in data set [8] (Karpas 422, DLBCL, single agent, 72 hours) is 0.305 µM; in data set [1] (setting [22]), 0.152 µM; in data set [1] (setting [23]), 0.161 µM; in data set [9] (FL, single agent, 72 hours), 0.128 µM; in data set [10] (DLBCL, single agent, 72 hours), 0.198 µM; in [11] (Mino, MCL, single agent, 72 hours), 0.114 µM. The EC50 in data set [12] (KMS-11, MM, single agent, 72 hours) amounted to 0.469 µM; in data set [13] (SU-DHL-2, DLBCL, single agent, 72 hours) it was 0.216 µM; in [14] (OCI-LY19, DLBCL, single agent, 72 hours), 0.0031 µM; in data set [15] (SU-DHL10, SU-DHL-10, DLBCL, single agent, 72 hours), 0.195 µM; in [16] (OCI-LY4, DLBCL, single agent, 72 hours) it was 0.037 µM; in data set [17] (SU-DHL-6, DLBCL, single agent, 72 hours) it was 0.125 µM. The EC50 in data set [20] was 0.0031 to 0.557 µM; in data set [19] (OCI-LY3, DLBCL, single agent, 72 hours), 0.026 µM.
Take `CC(=O)O[C@H]1C(=O)[C@@]2(C)[C@H]([C@H](OC(=O)c3ccccc3)[C@]3(O)C[C@H](OC(=O)[C@H](O)[C@@H](NC(=O)c4ccccc4)c4ccccc4)C(C)=C1C3(C)C)[C@]1(OC(C)=O)CO[C@@H]1C[C@@H]2O` [Taxol, taxol]: the EC50 in data set [1] (setting [22]) stood at 0.0071 µM; in [1] (setting [23]), 0.0056 µM.
For `CC[C@]1(O)C[C@@H]2CN(CCc3c([nH]c4ccccc34)[C@@](C(=O)OC)(c3cc4c(cc3OC)N(C)[C@H]3[C@@](O)(C(N)=O)[C@H](O)[C@]5(CC)C=CCN6CC[C@]43[C@@H]65)C2)C1` [Vindesine, vindesine], the serum half-life in [21] is 24 h.
